The values below come from US20260070945A1, “MACROCYCLIC IMMUNOMODULATORS” (Bristol-Myers Squibb Company, priority 2022, published 2026).

pIC50: −log10 of the molar value. *1 amine or outer side, *2 acyl side, *3 side chain or, on linkers, in order; H or OH if unused. Where a SMILES comes first, the peptide text is derived from it. Bridges are numbered along the chain shown (N, C = ends). [ ]: non-standard residue; d: D form. The star is where a group is joined. Phe(4-COOH) = N[C@@H](Cc1ccc(C(=O)O)cc1)C(=O)O; Bip = N[C@@H](Cc1ccc(-c2ccccc2)cc1)C(=O)O; Phe(3-Me) = Cc1cccc(C[C@H](N)C(=O)O)c1; γGlu = O=C(O)[C@H](CCC(=O)[*:2])N[*:1]; βAsp = O=C(O)[C@H](CC(=O)[*:2])N[*:1]; Cha = N[C@@H](CC1CCCCC1)C(=O)O; Carboxymethyl = O=C(O)C*; NMeA = CN[C@@H](C)C(=O)O; Aun = NCCCCCCCCCCC(=O)O; Dab = NCC[C@H](N)C(=O)O; Dap = NC[C@H](N)C(=O)O; AEEA = NCCOCCOCC(=O)O

The target of the assay is T1, PD-1/PD-L1 interaction (PE-labeled human PD-L1-Ig binding to Jurkat cell line over-expressing human PD-1) (Homo sapiens, UniProt Q15116).
T1 construct: expressed in transfected cells; host or cells: Jurkat
T1 sequence (Q15116 25-288): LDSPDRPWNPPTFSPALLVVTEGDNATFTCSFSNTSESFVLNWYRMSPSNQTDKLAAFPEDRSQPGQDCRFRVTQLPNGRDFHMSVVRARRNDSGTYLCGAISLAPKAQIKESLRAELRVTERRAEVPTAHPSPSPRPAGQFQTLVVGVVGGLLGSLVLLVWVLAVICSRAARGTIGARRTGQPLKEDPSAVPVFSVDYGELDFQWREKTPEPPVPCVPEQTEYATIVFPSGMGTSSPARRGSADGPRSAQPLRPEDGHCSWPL
Nature of the assay: Jurkat-PD-1 Cell Binding High-Content Screening Assay (CBA). The settings on record: Jurkat-hPD-1 cells, PE-labeled PD-L1-Ig 20 nM final; read-out: Jurkat HPD1 PDL1 IC50. On the procedure:
Example 2: Jurkat-PD-1 Cell Binding High-Content Screening Assay (CBA)
Phycoerythrin (PE) was covalently linked to the Ig epitope tag of human PD-L1-Ig and fluorescently-labeled PD-L1-Ig was used for binding studies with a Jurkat cell line over-expressing human PD-1 (Jurkat-PD-1). Briefly, 8×10^3 Jurkat-hPD-1 cells were seeded into 384 well plates in 20 μl of DMEM supplemented with 10% fetal calf serum. 100 nl of compound was added to cells followed by incubation at 37° C. for 2 hours. Then, 5 μl of PE-labeled PD-L1-Ig (20 nM final), diluted in DMEM supplemented with 10% fetal calf serum. After 1 hour incubation, cells were fixed with […] in dPBS containing 10 μg/ml Hoechst 33342 and then washed 3× in 100 μl dPBS. Data was collected and processed using a Cell Insight NXT High Content Imager and associated software.
`Cc1cccc(C[C@@H]2NC(=O)[C@H](CC(=O)O)NC(=O)[C@H](Cc3ccc(C(=O)O)cc3)NC(=O)[C@H](Cc3ccc(OCC(=O)O)cc3)NC(=O)CSC[C@@H](C(=O)NCC(=O)N[C@@H](CCC(=O)O)C(=O)NCCOCCOCC(=O)N[C@@H](CCC(=O)NCCOCCOCC(=O)NCCCCCCCCCCC(=O)O)C(=O)O)NC(=O)[C@H](CO)NC(=O)[C@H](C(C)C)NC(=O)[C@H](CC(C)C)NC(=O)[C@H](CC(N)=O)NC(=O)[C@@H](CC(C)C)NC(=O)[C@H](C)N(C)C(=O)[C@H](C(C)C)NC(=O)[C@H](Cc3ccc(-c4ccccc4)cc3)NC(=O)[C@H](CC(C)C)NC2=O)c1` [Example 1018] ({CH2CO}-Y(Carboxymethyl)[Phe(4-COOH)]D[Phe(3-Me)]L[Bip]V[NMeA][dL]NLVSCGE[AEEA][γGlu][AEEA][Aun]-OH; thioether N-14): the pIC50 was 7.17.
Turning to `Cc1cccc(C[C@@H]2NC(=O)[C@H](CC(=O)O)NC(=O)[C@H](Cc3ccc(C(=O)O)cc3)NC(=O)[C@H](Cc3ccc(OCC(=O)O)cc3)NC(=O)CSC[C@@H](C(=O)NCC(=O)N[C@@H](CC(=O)O)C(=O)NCCOCCOCC(=O)N[C@@H](CCC(=O)NCCOCCOCC(=O)NCCCCCCCCCCC(=O)O)C(=O)O)NC(=O)[C@H](CO)NC(=O)[C@H](C(C)C)NC(=O)[C@H](CC(C)C)NC(=O)[C@H](CC(N)=O)NC(=O)[C@@H](CC(C)C)NC(=O)[C@H](C)N(C)C(=O)[C@H](C(C)C)NC(=O)[C@H](Cc3ccc(-c4ccccc4)cc3)NC(=O)[C@H](CC(C)C)NC2=O)c1` [Example 1019] ({CH2CO}-Y(Carboxymethyl)[Phe(4-COOH)]D[Phe(3-Me)]L[Bip]V[NMeA][dL]NLVSCGD[AEEA][γGlu][AEEA][Aun]-OH; thioether N-14), the negative-log IC50 (pIC50) was 7.23.
The value for `Cc1cccc(C[C@@H]2NC(=O)[C@H](CC(=O)O)NC(=O)[C@H](Cc3ccc(C(=O)O)cc3)NC(=O)[C@H](Cc3ccc(OCC(=O)O)cc3)NC(=O)CSC[C@@H](C(=O)NCC(=O)N[C@@H](CCC(=O)O)C(=O)NCCOCCOCC(=O)N[C@@H](CC(=O)NCCOCCOCC(=O)NCCCCCCCCCCC(=O)O)C(=O)O)NC(=O)[C@H](CO)NC(=O)[C@H](C(C)C)NC(=O)[C@H](CC(C)C)NC(=O)[C@H](CC(N)=O)NC(=O)[C@@H](CC(C)C)NC(=O)[C@H](C)N(C)C(=O)[C@H](C(C)C)NC(=O)[C@H](Cc3ccc(-c4ccccc4)cc3)NC(=O)[C@H](CC(C)C)NC2=O)c1` [Example 1021] ({CH2CO}-Y(Carboxymethyl)[Phe(4-COOH)]D[Phe(3-Me)]L[Bip]V[NMeA][dL]NLVSCGE[AEEA][βAsp][AEEA][Aun]-OH; thioether N-14) was 7.12; that for `Cc1cccc(C[C@@H]2NC(=O)[C@H](CC(=O)O)NC(=O)[C@H](Cc3ccc(C(=O)O)cc3)NC(=O)[C@H](Cc3ccc(OCC(=O)O)cc3)NC(=O)CSC[C@@H](C(=O)NCC(=O)N[C@@H](CC(=O)O)C(=O)NCCOCCOCC(=O)N[C@@H](CC(=O)NCCOCCOCC(=O)NCCCCCCCCCCC(=O)O)C(=O)O)NC(=O)[C@H](CO)NC(=O)[C@H](C(C)C)NC(=O)[C@H](CC(C)C)NC(=O)[C@H](CC(N)=O)NC(=O)[C@@H](CC(C)C)NC(=O)[C@H](C)N(C)C(=O)[C@H](C(C)C)NC(=O)[C@H](Cc3ccc(-c4ccccc4)cc3)NC(=O)[C@H](CC(C)C)NC2=O)c1` [Example 1022] ({CH2CO}-Y(Carboxymethyl)[Phe(4-COOH)]D[Phe(3-Me)]L[Bip]V[NMeA][dL]NLVSCGD[AEEA][βAsp][AEEA][Aun]-OH; thioether N-14) was 7.12.
`Cc1cccc(C[C@@H]2NC(=O)[C@H](CC(=O)O)NC(=O)[C@H](Cc3ccc(C(=O)O)cc3)NC(=O)[C@H](Cc3ccc(OCC(=O)O)cc3)NC(=O)CSC[C@@H](C(=O)NCC(=O)N[C@@H](CC(=O)NCCOCCOCC(=O)N[C@@H](CCC(=O)O)C(=O)NCCOCCOCC(=O)NCCCCCCCCCCC(=O)O)C(=O)O)NC(=O)[C@H](CO)NC(=O)[C@H](C(C)C)NC(=O)[C@H](CC(C)C)NC(=O)[C@H](CC(N)=O)NC(=O)[C@@H](CC(C)C)NC(=O)[C@H](C)N(C)C(=O)[C@H](C(C)C)NC(=O)[C@H](Cc3ccc(-c4ccccc4)cc3)NC(=O)[C@H](CC(C)C)NC2=O)c1` [Example 1023] ({CH2CO}-Y(Carboxymethyl)[Phe(4-COOH)]D[Phe(3-Me)]L[Bip]V[NMeA][dL]NLVSCG[βAsp][AEEA]E[AEEA][Aun]-OH; thioether N-14): the pIC50 was 6.92.
The value for `Cc1cccc(C[C@@H]2NC(=O)[C@H](CC(=O)O)NC(=O)[C@H](Cc3ccc(C(=O)O)cc3)NC(=O)[C@H](Cc3ccc(OCC(=O)O)cc3)NC(=O)CSC[C@@H](C(=O)NCC(=O)N[C@@H](CC(=O)NCCOCCOCC(=O)N[C@@H](CC(=O)O)C(=O)NCCOCCOCC(=O)NCCCCCCCCCCC(=O)O)C(=O)O)NC(=O)[C@H](CO)NC(=O)[C@H](C(C)C)NC(=O)[C@H](CC(C)C)NC(=O)[C@H](CC(N)=O)NC(=O)[C@@H](CC(C)C)NC(=O)[C@H](C)N(C)C(=O)[C@H](C(C)C)NC(=O)[C@H](Cc3ccc(-c4ccccc4)cc3)NC(=O)[C@H](CC(C)C)NC2=O)c1` [Example 1024] ({CH2CO}-Y(Carboxymethyl)[Phe(4-COOH)]D[Phe(3-Me)]L[Bip]V[NMeA][dL]NLVSCG[βAsp][AEEA]D[AEEA][Aun]-OH; thioether N-14) was 7.06.
For `Cc1cccc(C[C@@H]2NC(=O)[C@H](CC(=O)O)NC(=O)[C@H](Cc3ccc(C(=O)O)cc3)NC(=O)[C@H](Cc3ccc(OCC(=O)O)cc3)NC(=O)CSC[C@@H](C(=O)NCC(=O)N[C@@H](CC(=O)NCCOCCOCC(=O)N[C@@H](CC(=O)NCCCCCCCCCCC(=O)O)C(=O)O)C(=O)O)NC(=O)[C@H](CO)NC(=O)[C@H](C(C)C)NC(=O)[C@H](CC(C)C)NC(=O)[C@H](CC(N)=O)NC(=O)[C@@H](CC(C)C)NC(=O)[C@H](C)N(C)C(=O)[C@H](C(C)C)NC(=O)[C@H](Cc3ccc(-c4ccccc4)cc3)NC(=O)[C@H](CC(C)C)NC2=O)c1` [Example 1025] ({CH2CO}-Y(Carboxymethyl)[Phe(4-COOH)]D[Phe(3-Me)]L[Bip]V[NMeA][dL]NLVSCG[βAsp][AEEA][βAsp][Aun]-OH; thioether N-14) the value was 6.95; for `Cc1cccc(C[C@@H]2NC(=O)[C@H](CC(=O)O)NC(=O)[C@H](Cc3ccc(C(=O)O)cc3)NC(=O)[C@H](Cc3ccc(OCC(=O)O)cc3)NC(=O)CSC[C@@H](C(=O)NCCOCCOCC(=O)NCCCCCCCCCCC(=O)O)NC(=O)[C@H](CO)NC(=O)[C@H](C(C)C)NC(=O)[C@H](CC(C)C)NC(=O)[C@H](CC(N)=O)NC(=O)[C@@H](CC(C)C)NC(=O)[C@H](C)N(C)C(=O)[C@H](C(C)C)NC(=O)[C@H](Cc3ccc(-c4ccccc4)cc3)NC(=O)[C@H](CC(C)C)NC2=O)c1` [Example 1027] ({CH2CO}-Y(Carboxymethyl)[Phe(4-COOH)]D[Phe(3-Me)]L[Bip]V[NMeA][dL]NLVSC[AEEA][Aun]-OH; thioether N-14), 7.66; for `CC(C)C[C@@H]1NC(=O)[C@H](Cc2c[nH]c3ccccc23)NC(=O)[C@H](CC(=O)O)NC(=O)[C@H](Cc2ccc(C(=O)O)cc2)NC(=O)[C@H](Cc2ccc(OCC(=O)O)cc2)NC(=O)CSC[C@@H](C(=O)NCC(=O)N[C@@H](CN)C(=O)NCC(=O)NCCCCCCCCCCC(=O)O)NC(=O)[C@H](CO)NC(=O)[C@H](C(C)C)NC(=O)[C@H](CC2CCCCC2)NC(=O)[C@H](CCN)NC(=O)[C@@H](CC(C)C)NC(=O)[C@H](C)N(C)C(=O)[C@H](C(C)C)NC(=O)[C@H](Cc2ccc(-c3ccccc3)cc2)NC1=O` [Example 1028] ({CH2CO}-Y(Carboxymethyl)[Phe(4-COOH)]DWL[Bip]V[NMeA][dL][Dab][Cha]VSCG[Dap]G[Aun]-OH; thioether N-14), 7.83.
